A short description of one data set: in vivo. Conditions: rat, in vivo, po, 20 mg/kg.
The next data set deals with AGS. Briefly: 3D cell proliferation inhibition assay (CellTiter-Glo 3D). The settings on record: Homo sapiens, 120 h; AGS cells, KRAS G12D, 3D culture, 5 days with compound. It counts as cell-based. As for the experimental part:
(§1) This experiment uses the cells listed in the table below to evaluate the inhibitory effects of the compounds on the proliferation of KRAS mutant or KRAS amplified cells.
(§2) On the first day of the experiment, cells that were growing well and had reached 70%-80% confluence were digested, resuspended in culture medium, and the cell density was adjusted to the desired level. In a U-shaped low-attachment 96-well plate (Corning, 7007), 90 µL of cell suspension was added per well, with the cell density as shown in the table above. The cell plate was centrifuged at 2500 rpm for 5 minutes and then placed in an incubator for 24 hours of culture. On the second day, the 20 mM test compound dissolved in DMSO was diluted with DMSO to the first concentration of 2 or 0.2 mM, and then serially diluted in a 5-fold gradient to obtain 9 concentration points, with the control well containing DMSO. The serially diluted compound was then further diluted 20-fold with culture medium. 10 µL of the test compound diluted in culture medium was added to each well of the cell plate. The final concentrations of the compound were 9 points in a 5-fold serial dilution starting from 10 or 1 µM. Cell wells containing 0.5% DMSO were set as vehicle control wells, and wells containing only culture medium and 0.5% DMSO were set as blank control wells. The cell plate was centrifuged at 2000 rpm for 3 minutes and then placed in an incubator for 5 days of culture. On the seventh day, the 96-well cell culture plate was taken out, and 50 µL of the luminescent cell viability detection reagent, CellTiter-Glo® 3D Cell Viability Assay (Promega, G9683), was added to each well. After shaking at room temperature for 25 minutes, the mixture was pipetted up and down to mix, and 100 µL was transferred from each well to a white, opaque-bottom OptiPlate™-96 well plate (PerkinElmer, 6005290). The luminescence signal value was read using a multimode microplate reader (PerkinElmer, EnVision2105).
(§3) The inhibition rate was calculated using the following formula: Inhibition rate = (Luminescence value vehicle control well - Luminescence value test compound)/(Luminescence value vehicle control well - Luminescence value blank control well) × 100%. The IC50 values of the compound inhibitory activity were calculated using Graphpad Prism software. Table 1. Data of inhibitory activity on 3D cell proliferation (unit: nM)
A general note: In ATP-based viability assays light output follows the ATP content of the culture.

The next data set has as its system GP2d. Described as above. It counts as cell-based. The settings on record: GP2d cells, KRAS G12D, 3D culture, 5 days with compound. The protocol:
as §1, §2, §3

Another data set concerns AsPC-1. The data set is described as above. It counts as cell-based. Conditions: Homo sapiens, ASPC1, 120 h; AsPC-1 cells, KRAS G12D, 3D culture, 5 days with compound. As for the experimental part: as §1, §2, §3
A further data set has as its system MKN1. The description is as above. It counts as cell-based. Conditions: Homo sapiens, MKN-1, 120 h; MKN1 cells, KRAS Amp, 3D culture, 5 days with compound. As for the experimental part: as §1, §2, §3

For orientation: AUC(0-t) means the area under the concentration-time curve up to a stated or last time point. Read a low AUC(0-t) as low exposure. What is called CL/F is clearance divided by bioavailability, as obtained after extravascular dosing. As a reminder, the Cmax is the peak of the concentration-time curve. The term Vd/F denotes the apparent distribution volume after extravascular dosing. In general, half-life refers to the time in which the quantity being followed falls by half. A high value points to slow decline. For orientation: IC50 means the concentration at which inhibition is half-maximal.

Protocol for in vivo: Using SD rats as the test animals, the plasma concentrations of the example compounds at different time points were determined by LC-MS/MS following oral gavage (i.g.) administration. The pharmacokinetic behaviours of the compounds of the present disclosure in rats were investigated, and their pharmacokinetic profiles were evaluated.
Blood samples (0.2 mL) were collected from the orbit before administration and at 0.25, 0.5, 1.0, 2.0, 4.0, 6.0, 8.0, 11.0, and 24.0 hours after administration. The samples were placed in EDTA-K2 anticoagulant tubes, centrifuged at 10,000 rpm for 2 minute (4°C), and the plasma was separated within 1 hour and stored at -20°C or -80°C until analysis. The entire process from blood collection to centrifugation was performed in ice bath conditions.
The mixture was vortexed and then centrifuged at 4000 rpm for 15 minutes; the supernatant was taken for LC-MS/MS analysis. […] The mixture was vortexed and then centrifuged at 3700 rpm for 10 minutes; the supernatant was taken for LC-MS/MS analysis.
The mixture was vortexed and then centrifuged at 4000 rpm for 15 minutes; the supernatant was taken for LC-MS/MS analysis. […] The mixture was vortexed and then centrifuged at 4000 rpm for 15 minutes; the supernatant was taken for LC-MS/MS analysis.

In “in vivo”, `N#Cc1c(N)sc2c(F)ccc(-c3c4c(c5cnc(OC[C@@]67CCCN6C[C@H](F)C7)nc5c3Cl)COC4)c12` (single isomer, unassigned) [60A (reference), reference compound] came in with an AUC(0-t) of 1820 ng·h/mL, a CL/F of 178 mL/min/kg, a Cmax of 143 ng/mL and a Vd/F of 54.5 L/kg. The molecule also showed a half-life in the data set “in vivo” of 3.53 h.
As to `N#Cc1c(N)sc2c(F)ccc(-c3c4c(c5c(N6C7CCC6CNC7)nc(OCC6(CN7CCC(=CF)CC7)CC6)nc5c3F)COC4)c12` (single isomer, unassigned) [Example 9A], the IC50 in the data set with AGS is 4.22 nM; with GP2d it was 0.16 nM.
As for `N#Cc1c(N)sc2c(F)ccc(-c3c4c(c5c(N6C7CCC6CNC7)nc(OCC6(CN7CCC(=CF)CC7)CC6)nc5c3F)COC4)c12` (single isomer, unassigned) [Example 9B], the half-maximal inhibitory concentration (IC50) in the data set with GP2d was determined as 2.6 nM.
Take `C[C@@H](O)CN1CC2CCC(C1)N2c1nc(OCC2(C#N)CC2)nc2c(F)c(-c3ncc(F)c4sc(N)c(C#N)c34)c3c(c12)COC3` [58 (reference), reference compound]: the IC50 in the data set with AGS was 2000 nM; with AsPC-1 it was 3330 nM; in the data set with GP2d (GP2d, 120 h), greater than 1000 nM.
Regarding `C[C@@H](O)CN1CC2CCC(C1)N2c1nc(OCC2(CN3CCC(=CF)CC3)CC2)nc2c(F)c(-c3ncc(F)c4sc(N)c(C#N)c34)c3c(c12)COC3` [Example 1, 2-amino-7-fluoro-4-(5-fluoro-3-((1-((4-(fluoromethylene)piperidin-1-yl)methyl)cyclopropyl)methoxy)-1-(3-((R)-2-hydroxypropyl)-3,8-diazabicyclo[3.2.1]oct-8-yl)-7,9-dihydrofuro[3,4-f]quinazolin-6-yl)thieno[3,2-c]pyridine-3-carbonitrile], the IC50 turned out to be 1.03 nM with AGS; 4.17 nM in the data set with AsPC-1; 0.28 nM in the data set on GP2d (GP2d, 120 h).
`N#Cc1c(N)sc2c(F)cnc(-c3c4c(c5c(N6C7CCC6CNC7)nc(OCC6(CN7CCC(=CF)CC7)CC6)nc5c3F)COC4)c12` [Example 1i, 4-(1-(3,8-diazabicyclo[3.2.1]oct-8-yl)-5-fluoro-3-((1-((4-(fluoromethylene)piperidin-1-yl)methyl)cyclopropyl)methoxy)-7,9-dihydrofuro[3,4-f]quinazolin-6-yl)-2-amino-7-fluorothieno[3,2-c]pyridine-3-carbonitrile]: the IC50 with AGS is 1.03 nM; with AsPC-1, 5.07 nM; in the data set on GP2d (GP2d, 120 h), 0.34 nM.
`N#Cc1c(N)sc2c(F)ccc(-c3c4c(c5c(N6C7CCC6CNC7)nc(OCC6(CN7CCC(=CF)CC7)CC6)nc5c3F)COC4)c12` [Example 9, 4-(1-(3,8-diazabicyclo[3.2.1]oct-8-yl)-5-fluoro-3-((1-((4-(fluoromethylene)piperidin-1-yl)methyl)cyclopropyl)methoxy)-7,9-dihydrofuro[3,4-f]quinazolin-6-yl)-2-amino-7-fluorobenzo[b]thiophene-3-carbonitrile]: the IC50 came out at 1.09 nM in the data set on AGS; 9.95 nM with AsPC-1; 0.26 nM with GP2d (GP2d, 120 h).
For `N#Cc1c(N)sc2c(F)ccc(-c3c4c(c5c(N6C7CCC6CNC7)nc(OCC6(CN7CCC(=C(F)F)CC7)CC6)nc5c3F)COC4)c12` [Example 11, 4-(1-(3,8-diazabicyclo[3.2.1]oct-8-yl)-3-((1-((4-(difluoromethylene)piperidin-1-yl)methyl)cyclopropyl)methoxy)-5-fluoro-7,9-dihydrofuro[3,4-f]quinazolin-6-yl)-2-amino-7-fluorobenzo[b]thiophene-3-carbonitrile], the concentration for half-maximal inhibition (IC50) amounted to 8.64 nM with AGS and 0.86 nM in the data set with GP2d (GP2d, 120 h).
For `N#Cc1c(N)sc2c(F)ccc(-c3c4c(c5c(N6C7CCC6CNC7)nc(OCC67CCCN6CC(=CF)C7)nc5c3F)COC4)c12` (stereo not drawn) [Example 13, 4-(1-(3,8-Diazabicyclo[3.2.1]oct-8-yl)-5-fluoro-3-((2-(fluoromethylene)tetrahydro-1H-pyrrolizin-7a(5H)-yl)methoxy)-7,9-dihydrofuro[3,4-f]quinazolin-6-yl)-2-amino-7-fluorobenzo[b]thiophene-3-carbonitrile] the same measures were 2.19 nM and 0.39 nM.
Take `N#Cc1c(N)sc2c(F)ccc(-c3c4c(c5cnc(OCC6(CN7CCC(=CF)CC7)CC6)nc5c3F)COC4)c12` [Example 14, 2-Amino-7-fluoro-4-(5-fluoro-3-((1-((4-(fluoromethylene)piperidin-1-yl)methyl)cyclopropyl)methoxy)-7,9-dihydrofuro[3,4-f]quinazolin-6-yl)benzo[b]thiophene-3-carbonitrile]: the IC50 was determined as 15.1 nM in the data set on AGS; 5.85 nM in the data set on GP2d (GP2d, 120 h); 8.1 nM in the data set on MKN1.
As for `N#Cc1c(N)sc2c(F)ccc(-c3c4c(c5c(N6C7CCC6CNC7)nc(OCC67CCCN6CC(=C(F)F)C7)nc5c3F)COC4)c12` (stereo not drawn) [Example 17, 4-(1-(3,8-Diazabicyclo[3.2.1]oct-8-yl)-3-((2-(difluoromethylene)tetrahydro-1H-pyrrolizin-7a(5H)-yl)methoxy)-5-fluoro-7,9-dihydrofuro[3,4-f]quinazolin-6-yl)-2-amino-7-fluorobenzo[b]thiophene-3-carbonitrile], the IC50 in the data set on AGS was 2.86 nM; with GP2d (GP2d, 120 h) it was 0.57 nM.
As for `C=C1CN2CC(=C)CC2(COc2nc(N3C4CCC3CNC4)c3c4c(c(-c5ccc(F)c6sc(N)c(C#N)c56)c(F)c3n2)COC4)C1` [Example 18, 4-(1-(3,8-Diazabicyclo[3.2.1]oct-8-yl)-3-((2,6-dimethylenetetrahydro-1H-pyrrolizin-7a(5H)-yl)methoxy)-5-fluoro-7,9-dihydrofuro[3,4-f]quinazolin-6-yl)-2-amino-7-fluorobenzo[b]thiophene-3-carbonitrile], the concentration for half-maximal inhibition (IC50) in the data set with AGS came out at 4.89 nM; in the data set on GP2d (GP2d, 120 h), 0.53 nM.
As to `N#Cc1c(N)sc2c(F)cnc(-c3c4c(c5c(N6C7CCC6CNC7)nc(OCC6(CN7CCC(=C(F)F)CC7)CC6)nc5c3F)COC4)c12` [Example 20, 4-(1-(3,8-diazabicyclo[3.2.1]oct-8-yl)-3-((1-((4-(difluoromethylene)piperidin-1-yl)methyl)cyclopropyl)methoxy)-5-fluoro-7,9-dihydrofuro[3,4-f]quinazolin-6-yl)-2-amino-7-fluorothieno[3,2-c]pyridine-3-carbonitrile], the IC50 was found to be 2.09 nM with AGS; 7.56 nM in the data set on AsPC-1; 0.27 nM with GP2d (GP2d, 120 h).
Take `N#Cc1c(N)sc2c(F)cnc(-c3c4c(c5c(N6C7CCC6CN(O)C7)nc(OCC6(CN7CCC(=C(F)F)CC7)CC6)nc5c3F)COC4)c12` [Example 21, 2-Amino-4-(3-((1-((4-(difluoromethylene)piperidin-1-yl)methyl)cyclopropyl)methoxy)-5-fluoro-1-(3-hydroxyl-3,8-diazabicyclo[3.2.1]oct-8-yl)-7,9-dihydrofuro[3,4-f]quinazolin-6-yl)-7-fluorothieno[3,2-c]pyridine-3-carbonitrile]: the IC50 with GP2d (GP2d, 120 h) was 2.12 nM.
With `N#Cc1c(N)sc2c(F)cnc(-c3c4c(c5c(N6C7CCC6CN(O)C7)nc(OCC6(CN7CCC(=CF)CC7)CC6)nc5c3F)COC4)c12` [Example 22, 2-Amino-7-fluoro-4-(5-fluoro-3-((1-((4-(fluoromethylene)piperidin-1-yl)methyl)cyclopropyl)methoxy)-1-(3-hydroxyl-3,8-diazabicyclo[3.2.1]oct-8-yl)-7,9-dihydrofuro[3,4-f]quinazolin-6-yl)thieno[3,2-c]pyridine-3-carbonitrile], the IC50 in the data set with AGS turned out to be 1.57 nM; in the data set with AsPC-1 it was 4.64 nM; in the data set with GP2d (GP2d, 120 h), 0.26 nM.
Consider `C=C1CN2CC(=C)CC2(COc2ncc3c4c(c(-c5ccc(F)c6sc(N)c(C#N)c56)c(F)c3n2)COC4)C1` [Example 26, 2-Amino-4-(3-((2,6-dimethylenetetrahydro-1H-pyrrolizin-7a(5H)-yl)methoxy)-5-fluoro-7,9-dihydrofuro[3,4-f]quinazolin-6-yl)-7-fluorobenzo[b]thiophene-3-carbonitrile], for which the IC50 with GP2d (GP2d, 120 h) was 9.79 nM; with MKN1, 13.2 nM.
Regarding `N#Cc1c(N)sc2ccc(F)c(-c3c4c(c5cnc(OCC6(CN7CCC(=CF)CC7)CC6)nc5c3F)COC4)c12` [Example 40, 2-Amino-5-fluoro-4-(5-fluoro-3-((1-((4-(fluoromethylene)piperidin-1-yl)methyl)cyclopropyl)methoxy)-7,9-dihydrofuro[3,4-f]quinazolin-6-yl)benzo[b]thiophene-3-carbonitrile], the half-maximal inhibitory concentration (IC50) in the data set on GP2d (GP2d, 120 h) came to 8.4 nM; in the data set with MKN1, 11.1 nM.
